Holding throughout (format): cell-based
The target in one data set is T1, CXCR4 receptor (Homo sapiens, UniProt P61073).
T1 construct: expressed in transfected cells; host or cells: HEK-293 cells (stably expressing human macrophage scavenging receptor) transduced with human CXCR4 BacMam and Gqi5 BacMam
The data set is described as follows: Functional FLIPR assay (block of SDF-1 alpha induced [Ca2+]i change). The following applies: HEK-293 cells with human CXCR4 BacMam and Gqi5 BacMam; antagonism of SDF-1 alpha; read-out: Functional assay (pIC50) (converted). How it is done:
Human embryonic kidney (HEK-293) cells were maintained and harvested as described above. Cells were plated in 96-well, black clear bottom, poly-lysine coated plates at a concentration of 40,000 cells per well in a final volume of 100 ul containing human CXCR4 BacMam (MOI=25) and Gqi5 BacMam (MOI=12.5). The cells were incubated at 37° C., 5% CO2, 95% humidity for 24 h to allow for protein expression.
After the required incubation time the cells were washed once with 50 ul of fresh serum-free DMEM/F12 media containing probenicid. 50 ul of dye solution was then added to the cells (Calcium Plus Assay Kit Dye; Molecular Devices) was dissolved in 200 ml of the above probenicid/BSA containing media and incubated for 1 h. Cell plates were transferred to a Fluorometric Imaging Plate Reader (FLIPR). Upon addition the effect of the compounds on the change in [Ca^2+]i was examined to determine if the compounds were agonists or antagonists (ability to block SDF-1 alpha activity) at the CXCR4 receptor. IC50 values are determined and pKb values are calculated using the Leff and Dougall equation: KB=IC50/((2+([agonist]/EC50̂b)̂1/b -1) Where IC50 is that defined by the antagonist concentration-response curve [agonist] is the EC80 concentration of agonist used EC50 is that defined by the agonist concentration-response curve b is the slope of the agonist concentration-response curve.

For data set [1], the system named is HIV-1 gp160 (HXB2 strain) mediated fusion with HOS (hCXCR4/hCCR5/hCD4/pHIV-LTR-luciferase) cells. Description: Cell/cell fusion assay (HEK-293 expressing HIV-1 tat, rev, gp160 with HOS hCXCR4/hCCR5/hCD4/pHIV-LTR-luciferase cells). As to conditions: Homo sapiens, HEK293; luciferase readout after 24 h; read-out: Fusion assay (pIC50) (converted). The source says:
The complete coding sequences of HIV-1 tat (GenBank Accession No. X07861) and rev (GenBank Accession No. M34378) were cloned into pcDNA3.1 expression vectors containing G418 and hygromycin resistance genes, respectively. The complete coding sequence of the HIV-1 (HXB2 strain) gp160 envelope gene (nucleotide bases 6225-8795 of GenBank Accession No. K03455) was cloned into plasmid pCRII-TOPO. The three HIV genes were additionally inserted into the baculovirus shuttle vector, pFastBacMam1, under the transcriptional control of the CMV promoter. A construction of the pHIV-I LTR containing mutated NFkB sequences linked to the luciferase reporter gene was prepared by digesting pcDNA3.1, containing the G418 resistance gene, with Nru I and Bam HI to remove the CMV promoter. LTR-luc was then cloned into the Nru I/Bam HI sites of the plasmid vector. Plasmid preparations were performed after the plasmids were amplified in Escherichia coli strain DH5-alpha. The fidelity of the inserted sequences was confirmed by double-strand nucleotide sequencing using an ABI Prism Model 377 automated sequencer.
Recombinant BacMam baculoviruses were constructed from pFastBacMam shuttle plasmids by using the bacterial cell-based Bac-to-Bac system. Viruses were propagated in Sf9 (Spodoptera frugiperda) cells cultured in Hink's TNM-FH Insect media supplemented with 10% (v/v) fetal bovine serum and 0.1% (v/v) pluronic F-68 according to established protocols.
Human osteosarcoma (HOS) cells that naturally express human CXCR4 were transfected with human CCR5, human CD4 and the pHIV-LTR-luciferase plasmid using FuGENE 6 transfection reagent. Single cells were isolated and grown under selection condition in order to generate a stable HOS (hCXCR4/hCCR5/hCD4/pHIV-LTR-luciferase) clonal cell line. The cells were maintained in Dulbeccos modified Eagles media supplemented with 10% fetal calf serum (FCS), G418 (400 ug/ml), puromycin (1 ug/ml), mycophenolic acid (40 ug/ml), xanthine (250 ug/ml) and hypoxanthine (13.5 ug/ml) to maintain a selection pressure for cells expressing the LTR-luciferase, hCCR5 and hCD4, respectively. Human embryonic kidney (HEK-293) cells stably transfected to express the human macrophage scavenging receptor (Class A, type 1; GenBank Accession No. D90187), were maintained in DMEM/F-12 media (1:1) supplemented with 10% FCS and 1.5 ug/ml puromycin. The expression of this receptor by the HEK-293 cells enhances their ability to stick to tissue culture treated plasticware.
HEK-293 cells were harvested using enzyme-free cell dissociation buffer. The cells were resuspended in DMEM/F-12 media supplemented with 10% FCS and 1.5 ug/ml and counted. Tranductions were performed by direct addition of BacMam baculovirus containing insect cell media to cells. The cells were simultaneously transduced with BacMam baculovirus expressing HIV-1 tat, HIV-1 rev and HIV-1 gp160 (from the HXB2 HIV strain). Routinely an MOI of 10 of each virus was added to the media containing the cells. 2 mM butyric acid was also added to the cells at this stage to increase protein expression in transduced cells. The cells were subsequently mixed and seeded into a flask at 30 million cells per T225. The cells were incubated at 37° C., 5% CO2, 95% humidity for 24 h to allow for protein expression.
HEK and HOS cells were harvested in DMEM/F-12 media containing 2% FCS and DMEM media containing 2% FCS, respectively, with no selection agents added. Compounds were plated as 1 ul spots in 100% DMSO on a 96-well CulturPlate plates. HOS cells (50 ul) were added first to the wells, followed immediately by the HEK cells (50 ul). The final concentration of each cell type was 20,000 cells per well. Following these additions, the cells were returned to a tissue culture incubator (37° C.; 5% CO2/95% air) for an additional 24 h.
Following the 24 h incubation, total cellular luciferase activity was measured using the LucLite Plus assay kit (Packard, Meridien, Conn.). […]

Data set [2] can be described thus: Compound cytotoxicity in the absence of virus (CellTiter-Glo). The following applies: human; non-infected HOS cultures, cell viability; read-out: Cytotox (pIC50) (converted). As to the method: (§1) Compounds were profiled against two HIV-1 viruses, the M-tropic (CCR5 utilizing) Ba-L strain and the T-tropic (CXCR4 utilizing) IIIB strain. Both viruses were propagated in human peripheral blood lymphocytes. Compounds were tested for there ability to block infection of the HOS cell line (expressing hCXCR4/hCCR5/hCD4/pHIV-LTR-luciferase) by either HIV-1 Ba-L or HIV-1 IIIB. Compound cytotoxicity was also examined in the absence of virus addition.
(§2) HOS cells (expressing hCXCR4/hCCR5/hCD4/pHIV-LTR-luciferase) were harvested and diluted in Dulbeccos modified Eagles media supplemented with 2% FCS and non-essential amino acid to a concentration of 60,000 cells/ml. The cells were plated into 96-well plates (100 ul per well) and the plates were placed in a tissue culture incubator (37° C.; 5% CO2/95% air) for a period of 24 h.
(§3) Subsequently, 50 ul of the desired drug solution (4 times the final concentration) was added to each well and the plates were returned to the tissue culture incubator (37° C.; 5% CO2/95% air) for 1 h. Following this incubation 50 ul of diluted virus was added to each well (approximately 2 million RLU per well of virus). The plates were returned to the tissue culture incubator (37° C.; 5% CO2/95% air) and were incubated for a further 96 h.
(§4) Following this incubation the endpoint for the virally infected cultures was quantified following addition of Steady-Glo Luciferase assay system reagent (Promega, Madison, Wis.). Cell viability or non-infected cultures was measured using a CellTiter-Glo luminescent cell viability assay system (Promega, Madison, Wis.). All luminescent readouts are performed on a Topcount luminescence detector (Packard, Meridien, Conn.).
Background: In ATP-based viability assays light output follows the ATP content of the culture.

Data set [3] relates to HIV-1 IIIB strain, T-tropic (CXCR4 utilizing). Description: HOS HIV-1 infectivity assay. As to the method: as §1, §2, §3, §4
[4] abbreviates: Human immunodeficiency virus 1, IIIB, HOS HIV anti-infectivity assay, strain not named in Table 2, read-out: Activity Level.
[5] abbreviates: Human immunodeficiency virus 1, HOS cells, HIV-1 IIIB, 96 h, luciferase, read-out: HOS (3B).
Setting [6] is: Human immunodeficiency virus 1, IIIB, HOS, 96 h, read-out: HOS (3B) (μM).
Where [7] appears, read: Human immunodeficiency virus 1, IIIB, read-out: Activity Level.

Read-outs that look alike come from different tables or passages of the source.

T1 sequence (P61073 whole entry): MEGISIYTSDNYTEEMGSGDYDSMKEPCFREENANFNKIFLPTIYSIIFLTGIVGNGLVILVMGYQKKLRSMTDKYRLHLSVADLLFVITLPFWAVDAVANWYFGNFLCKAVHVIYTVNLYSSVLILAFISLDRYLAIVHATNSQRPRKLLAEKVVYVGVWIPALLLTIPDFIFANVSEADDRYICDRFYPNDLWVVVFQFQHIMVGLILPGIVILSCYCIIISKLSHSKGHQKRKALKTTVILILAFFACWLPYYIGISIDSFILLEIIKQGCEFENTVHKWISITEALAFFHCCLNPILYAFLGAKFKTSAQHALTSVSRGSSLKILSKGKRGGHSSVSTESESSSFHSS

For the compound `NCCCCN(Cc1cn2c(Br)cccc2n1)C1CCCc2cccnc21` (centres unmarked) [Example 12, N-[(5-Bromoimidazo[1,2-a]pyridin-2-yl)methyl]-N-(5,6,7,8-tetrahydro-8-quinolinyl)-1,4-butanediamine], the IC50 on CXCR4 receptor is 9.77 nM; in data set [1], 28.8 nM; in data set [3] (setting [4]), < 0.1 µM; in data set [3] (setting [5]) it was 0.01 µM. Also, the IC50 at 96 h in data set [2] is > 100000 nM.

With `NCCCCN(Cc1cn2c(Cl)cccc2n1)C1CCCc2cccnc21` (centres unmarked) [Example 13, N-[(5-Chloroimidazo[1,2-a]pyridin-2-yl)methyl]-N-(5,6,7,8-tetrahydro-8-quinolinyl)-1,4-butanediamine], the IC50 is 40.7 nM at CXCR4 receptor, 91.2 nM in data set [1], < 0.1 µM in data set [3] (setting [4]) and 0.025 µM in data set [3] (setting [5]). In addition, in data set [2], the IC50 at 96 h is > 100000 nM.

Turning to `NCCCCN(Cc1cn2c(F)cccc2n1)C1CCCc2cccnc21` (centres unmarked) [Example 14, N-[(5-Fluoroimidazo[1,2-a]pyridin-2-yl)methyl]-N-(5,6,7,8-tetrahydro-8-quinolinyl)-1,4-butanediamine], the IC50 on CXCR4 receptor is 100 nM; in data set [1], 407 nM; in data set [3] (setting [4]), < 0.1 µM; in data set [3] (setting [5]) it was 0.091 µM. In addition, the IC50 at 96 h in data set [2] is > 100000 nM.

On to `Cc1cc(C)n2cc(CN(CCCCN)C3CCCc4cccnc43)nc2c1` (centres unmarked) [Example 15, N-[(5,7-Dimethylimidazo[1,2-a]pyridin-2-yl)methyl]-N-(5,6,7,8-tetrahydro-8-quinolinyl)-1,4-butanediamine], for which the IC50 was 93.3 nM on CXCR4 receptor, 316 nM in data set [1], 0.1 to 0.5 µM in data set [3] (setting [4]) and 0.112 µM in data set [3] (setting [5]). Besides, the IC50 at 96 h in data set [2] is > 100000 nM.

For the compound `NCCCCN(Cc1cn2cc(Cl)cc(Cl)c2n1)C1CCCc2cccnc21` (centres unmarked) [Example 16, N-[(6,8-Dichloroimidazo[1,2-a]pyridin-2-yl)methyl]-N-(5,6,7,8-tetrahydro-8-quinolinyl)-1,4-butanediamine], the IC50 at CXCR4 receptor was 49 nM; in data set [1], 1290 nM; in data set [3] (setting [4]), 0.1 to 0.5 µM; in data set [3] (setting [5]), 0.133 µM. Further, the IC50 at 96 h in data set [2] is > 100000 nM.

With `NCCCCN(Cc1cn2cc(C(F)(F)F)cc(Cl)c2n1)C1CCCc2cccnc21` (centres unmarked) [Example 17, N-{[8-Chloro-6-(trifluoromethyl)imidazo[1,2-a]pyridin-2-yl]methyl}-N-(5,6,7,8-tetrahydro-8-quinolinyl)-1,4-butanediamine], the IC50 at CXCR4 receptor is 347 nM; in data set [1], 3890 nM; in data set [3] (setting [6]), 0.3 µM; in data set [3] (setting [7]), 0.1 to 0.5 µM. Further, in data set [2], the IC50 at 96 h is > 100000 nM.

Take `Cc1c(Br)ccc2nc(CN(CCCCN)C3CCCc4cccnc43)cn12` (centres unmarked) [Example 18, N-[(6-Bromo-5-methylimidazo[1,2-a]pyridin-2-yl)methyl]-N-(5,6,7,8-tetrahydro-8-quinolinyl)-1,4-butanediamine]: the IC50 is 30.9 nM on CXCR4 receptor, 155 nM in data set [1], < 0.1 µM in data set [3] (setting [4]) and 0.088 µM in data set [3] (setting [5]). In data set [2], the IC50 at 96 h is > 100000 nM.

For `Cc1cc(Br)cn2cc(CN(CCCCN)C3CCCc4cccnc43)nc12` (centres unmarked) [Example 19, N-[(6-Bromo-8-methylimidazo[1,2-a]pyridin-2-yl)methyl]-N-(5,6,7,8-tetrahydro-8-quinolinyl)-1,4-butanediamine], the IC50 on CXCR4 receptor is 67.6 nM; in data set [1], 537 nM; in data set [3] (setting [4]), 0.1 to 0.5 µM; in data set [3] (setting [5]), 0.14 µM. Moreover, the IC50 at 96 h in data set [2] was > 100000 nM.

In the case of `Cc1cc(Br)c2nc(CN(CCCCN)C3CCCc4cccnc43)cn2c1` (centres unmarked) [Example 20, N-[(8-Bromo-6-methylimidazo[1,2-a]pyridin-2-yl)methyl]-N-(5,6,7,8-tetrahydro-8-quinolinyl)-1,4-butanediamine], the IC50 at CXCR4 receptor is 135 nM; in data set [1] it was 2290 nM; in data set [3] (setting [4]), 0.1 to 0.5 µM; in data set [3] (setting [5]) it was 0.31 µM. The IC50 at 96 h in data set [2] is > 100000 nM.

Turning to `NCCCCN(Cc1cn2c(N3CCCC3)cccc2n1)C1CCCc2cccnc21` (centres unmarked) [Example 21, N-{[5-(1-Pyrrolidinyl)imidazo[1,2-a]pyridin-2-yl]methyl}-N-(5,6,7,8-tetrahydro-8-quinolinyl)-1,4-butanediamine], the IC50 at CXCR4 receptor was 20 nM; in data set [1], 102 nM; in data set [3] (setting [6]), 0.038 µM; in data set [3] (setting [7]), < 0.1 µM. Moreover, the IC50 at 96 h in data set [2] is > 100000 nM.
